Experimental data reported in patent US20070092527A1, “Proton-sensing g-protein coupled receptors and dna sequences thereof” (NOVARTIS AG, priority 2003, published 2007).
Blank lines part the entries; values can stand above or below the molecule they belong to.

Key:
[1] = target: T1, Human TDAG8 (Homo sapiens, UniProt Q8IYL9); assay: cAMP formation assay, TDAG8; assay type: cell-based; conditions: TDAG8
T1 construct: His; expressed in transfected cells; host or cells: CCL39 (cAMP formation); CCL39 CRE-luc (luciferase reporter)
T1 sequence (Q8IYL9 whole entry A43P/W80T/N97L/F130I/Q180E): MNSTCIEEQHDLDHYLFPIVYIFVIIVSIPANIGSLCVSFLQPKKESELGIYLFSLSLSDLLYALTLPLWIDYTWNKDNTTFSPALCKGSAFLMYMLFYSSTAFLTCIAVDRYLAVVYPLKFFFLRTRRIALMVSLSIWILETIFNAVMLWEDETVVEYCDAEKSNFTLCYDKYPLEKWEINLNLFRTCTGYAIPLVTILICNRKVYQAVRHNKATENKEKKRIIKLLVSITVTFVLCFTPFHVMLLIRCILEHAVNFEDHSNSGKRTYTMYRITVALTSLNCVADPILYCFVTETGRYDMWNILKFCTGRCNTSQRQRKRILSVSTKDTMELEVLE
Description: (§1) Stable cell lines expressing TDAG8 are generated in either CCL39 cells or in CCL39 CRE-luc cells which stably express a cAMP-dependent luciferase reporter to detect changes in cAMP in response to ligand. Stable cell lines are generated In the above cell lines by transfecting the TDAG8 cDNA expression construct using Effectene (Qiagen, Basel, Switzerland) according to the manufacturers protocol. Transfected cells are selected in the presence of 400 μg/ml of G418. After 3 weeks of antibiotic selection, individual clones are picked and expanded for further analysis.

[2] = target: T2, Human TDAG8 (Homo sapiens, UniProt Q8IYL9, A43P/F130I/N97L/Q180E/W80T); assay: cAMP formation assay, TDAG8; assay type: cell-based; conditions: CCL39 cells stably expressing the receptor; mean+/-sem, N=6
T2 construct: His; expressed in transfected cells; host or cells: CCL39 (cAMP formation); CCL39 CRE-luc (luciferase reporter)
T2 sequence (Q8IYL9 whole entry A43P/W80T/N97L/F130I/Q180E): as above
Description: as §1

[3] = target: T3, OGR1 (Homo sapiens, UniProt Q15743); assay: Inositol phosphate (IP) formation assay, cells expressing OGR1; assay type: cell-based; conditions: for Inhibition of OGR1-dependent IP formation: stimulated at pH 6.9, micromolar concentrations
T3 construct: His; expressed in transfected cells
Target sequence in this assay (Q15743 whole entry): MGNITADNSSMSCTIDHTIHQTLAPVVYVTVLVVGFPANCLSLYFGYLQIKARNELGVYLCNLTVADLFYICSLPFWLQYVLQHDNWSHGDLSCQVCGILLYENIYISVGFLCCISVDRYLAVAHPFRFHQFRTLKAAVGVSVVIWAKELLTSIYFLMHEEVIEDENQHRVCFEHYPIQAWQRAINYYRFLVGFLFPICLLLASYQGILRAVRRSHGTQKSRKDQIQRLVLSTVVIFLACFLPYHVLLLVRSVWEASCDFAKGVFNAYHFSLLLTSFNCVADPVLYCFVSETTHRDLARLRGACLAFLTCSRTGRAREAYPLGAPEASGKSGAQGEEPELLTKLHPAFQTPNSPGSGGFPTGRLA

[4] = target: T4, Human GPR4 (Homo sapiens, UniProt P46093, E51Q/F19H/F93P/Q349E); assay: cAMP formation assay, GPR4; assay type: cell-based
T4 construct: Human GPR4 is amplified from genomic DNA using primers GPR4F and GPR4R; expressed in transfected cells; host or cells: HEK293 (transient)
T4 sequence (P46093 whole entry F19H/E51Q/F93P/Q349E): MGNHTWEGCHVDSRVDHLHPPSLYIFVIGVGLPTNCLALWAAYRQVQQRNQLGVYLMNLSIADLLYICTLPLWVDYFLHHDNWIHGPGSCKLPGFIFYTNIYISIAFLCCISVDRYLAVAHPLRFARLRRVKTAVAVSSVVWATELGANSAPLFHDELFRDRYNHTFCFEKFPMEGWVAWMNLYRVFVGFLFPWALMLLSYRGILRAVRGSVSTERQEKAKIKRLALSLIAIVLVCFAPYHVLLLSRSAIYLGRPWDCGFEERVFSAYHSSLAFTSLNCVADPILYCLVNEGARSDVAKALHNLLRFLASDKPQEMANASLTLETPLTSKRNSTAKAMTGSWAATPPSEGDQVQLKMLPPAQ
Description: (§2) Human GPR4 is amplified from genomic DNA using primers GPR4F and GPR4R (5′ CACC ATGGGCAACCACACGTGGGAGGGCTGC 3′ and 5′ TCATTGTGCTGGCGGCAGCATCTTCAGCTGCA 3′ respectively). The PCR reaction mixture contains 0.2 mM dNTPs, 1×PCR buffer containing 1.5 mM MgCl2, 0.5 Units Taq DNA polymerase, 40 pmol each primer and sterile water in a total volume of 50 μl. The template for this reaction is human genomic DNA (Promega, Southampton, UK). PCR is performed using a Biometra T3 Thermocycler using the following cycling conditions: Denaturation at 95° C. for 2 min followed by 35 cycles of denaturation at 95° C. for 15s, annealing at 60° C. for 15 s, and extension at 72° C. for 1 min. A final extension at 72° C. is performed for 7 min. The 1.1 kb PCR product is purified and cloned pcDNA3.1 DN5-His-TOPO (Invitrogen, Paisley, UK).

[5] = target: T3, OGR1; assay: Cytoplasmic calcium transients (Fluo-3, fluorescence-imaging plate reader), CCL39 cells transfected with OGR1; assay type: cell-based; conditions: shift of extracellular pH from pH 7.6; mean+/-sem, N=3
Description: Method: Cytoplasmic calcium transients are recorded using the calcium indicator Fluo-3 and a fluorescence-imaging plate reader (Molecular Devices/BucherBiotech, Basel, Switzerland).
CCL39 cells transfected with OGR1 are loaded with the acetoxymethylester of the dye (2 μg/ml) for 1 h at 37° C. in full medium containing 5 mM probenicide to inhibit the multidrug resistance transporter. […] To identify receptor antagonists, test compounds are added during the last 15 minutes of this incubation. After transfer to the reader a baseline is recorded (Fb), and cells are then stimulated by addition of an appropriate amount of stronger buffer (20 mM HEPES, pH 6), inducing acidification.
Alternatively, test compounds are added at this stage to identify agonistic molecules. The fluorescence readout F is normalised calculating F′=(F−Fb)/Fb.
Target sequence in this assay (Q15743 whole entry T18I/I19T): as the sequence (Q15743 whole entry) above, with T18I, I19T counted along it

[6] = tested on: MG63 human osteosarcoma cells; assay: IP formation in MG63 human osteosarcoma cells (endogenous OGR1 mRNA); assay type: cell-based
[7] = target: T2, Human TDAG8; assay: cAMP luciferase reporter assay, TDAG8 in CCL39 CRE-luc cells; assay type: cell-based; conditions: CCL39 CRE-luc cells stably expressing the receptor; mean+/-sem, N=7
Description: as §1
Cells co-expressing TDAG8 and a cAMP luciferase reporter, as described in Example 8, are plated at 10-20,000 cells per well in white 96 well plates. The day before performing the assay the medium is changed for serum-free DMEM and the cells are incubated overnight at 37° C. in the presence of 5% CO2. […] 100 μl of the appropriate HBS buffer containing the to be tested compound (e.g. from any in-house or commercially available compound library) are then added on the cells. […] Agonists in the assay produce an increase in luminescence whereas antagonists produce a decrease in the luminescence. E.g. antagonists are characterised in the assay by a decrease in luminescence signal compared to the no compound control and e.g. in acidic pH buffer at pH 6.8 or pH 7.0 or at half-maximal activation of human TDAG8. […]

[8] = tested on: thrombin-stimulated IP formation (endogenous receptors in CCL39 cells); assay: Thrombin-stimulated IP formation in CCL39 cells; assay type: cell-based, hamster; conditions: for Effect on thrombin-stimulated IP formation: control CCL39 cells
[9] = target: T5, Human GPR4 (Homo sapiens, UniProt P46093); assay: cAMP formation assay, GPR4; assay type: cell-based; conditions: GPR4
T5 construct: Human GPR4 is amplified from genomic DNA using primers GPR4F and GPR4R; expressed in transfected cells; host or cells: HEK293 (transient)
T5 sequence (P46093 whole entry F19H/E51Q/F93P/Q349E): as the sequence (P46093 whole entry F19H/E51Q/F93P/Q349E) above
Description: as §2

[10] = tested on: forskolin-stimulated adenylyl cyclase; assay: Forskolin-stimulated adenylyl cyclase in other cell systems; assay type: cell-based

Molecule: CCCCCCCCCCCCC/C=C/[C@@H](O)[C@@H](N)CO[C@@H]1O[C@H](CO)[C@H](O)[C@H](O)[C@H]1O [Psychosine]
Activation of cAMP formation on its own [1]: does not activate cAMP formation on its own

Molecule: [Cu+2] [Cu^2+]
Inhibition of OGR1-dependent IP formation [3]: strongly Inhibit
Effect on pH-stimulated IP formation ([6]; PTX pretreatment, or micromolar concentrations of copper ions): inhibited
Effect on thrombin-stimulated IP formation [8]: without effect

Molecule: CCCCCCCCCCCCC/C=C/[C@@H](O)[C@@H](N)COP(=O)([O-])OCC[N+](C)(C)C [SPC]
Effect on pH-dependent stimulation of IP formation ([3]; CCL39 cells expressing OGR1): does not affect pH-dependent stimulation of IP formation
Stimulation of OGR1 (IP formation) ([3]; CCL39 cells expressing OGR1): does not stimulate the receptor
Activation of cAMP formation on its own [9]: does not activate cAMP formation on its own
Effect on pH-dependent stimulation of cAMP formation ([4]; GPR4): does not modulate pH-dependent stimulation
Effect on forskolin-stimulated adenylyl cyclase [10]: inhibiting forskolin-stimulated adenylyl cyclase

Molecule: thrombin: bovine thrombin, activates endogenous receptors in CCL39 cells
pH modulation of the response to the receptor agonist (IP formation) ([8]; range of pH 7-8): not positively modulated

Further lines, with some results ahead:

Half-maximal activation of cAMP formation by TDAG8 [2]: 7.15+/−0.02 pH
Half-maximal activation of the receptor (IP formation) ([3]; OGR1 expressed in CCL39 hamster fibroblasts, mean+/-sem, N=12, pH referenced to room temperature): 7.48+/−0.04 pH
Hill coefficient of activation ([3]; OGR1 in CCL39 hamster fibroblasts, IP formation): > 2
Half-maximal activation of IP formation ([3]; transiently transfected HEK cells, mean+/-sem, N=4): 7.38+/−0.04 pH
Half-maximal activation of cAMP formation by GPR4 ([4]; transiently transfected HEK293 cells, mean+/-sem, N=6): 7.55+/−0.02 pH
Half-maximal activation (intracellular calcium response) [5]: 7.20+/−0.04 pH
Half-maximal activation of luciferase induction by human TDAG8 [7]: 7.28+/−0.02 pH
Molecule: [H+] [protons]
Halfmaximal activation of IP formation ([6]; mean+/-sem, N=5): 7.46+/−0.01 pH

Inhibition of OGR1-dependent IP formation [3]: strongly Inhibit
Molecule: [Zn+2] [Zn^2+]
Effect on thrombin-stimulated IP formation [8]: partial inhibition
